Here are results for 23 molecules from US20060029995A1, “Novel class of metacaspases” (Vlaams Interuniversitair Instituut Voor Biotechnologie VZW, priority 2003, published 2006).

Assay [1] deals with T1, Atmc9 (Arabidopsis thaliana, UniProt Q9FYE1).
T1 construct: it indeed consists of amino acids 184 to 325 (calculated mass 15427 Da); made in house; host or cells: E. coli BL21(DE3), pDEST17, Ni-NTA purified
T1 sequence (Q9FYE1 1-183 limits assumed): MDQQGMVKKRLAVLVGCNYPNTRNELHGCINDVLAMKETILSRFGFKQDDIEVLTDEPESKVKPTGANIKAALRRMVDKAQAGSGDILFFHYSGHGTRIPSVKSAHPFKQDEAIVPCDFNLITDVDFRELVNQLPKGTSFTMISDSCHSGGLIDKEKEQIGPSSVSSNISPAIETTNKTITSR
T1 sequence (Q9FYE1 184-325 limits assumed): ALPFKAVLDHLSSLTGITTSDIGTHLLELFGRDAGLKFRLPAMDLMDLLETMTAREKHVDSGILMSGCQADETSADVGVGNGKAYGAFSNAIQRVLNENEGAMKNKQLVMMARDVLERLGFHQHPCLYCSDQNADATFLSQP
Type of assay: biochemical. As to conditions: for inhibition / inactivation of Atmc9: no concentration stated; for inhibition of Atmc9 activity: at the millimolar range. How it is done:
Assays were performed in 150 μl with 400 ng of purified Atmc9 and 50 μM substrate in an optimized metacaspase 9 assay buffer (50 mM MES pH 5.3, 10% (w/v) sucrose, 0.1% (w/v) 3-[(3-cholamidopropyl)dimethylammonio]-1-propanesulfonate [CHAPS], 10 mM DTT). Time-dependent release of free amido-4-methylcoumarin (AMC) was measured on a Cytofluor 4000 fluorescence microplate reader (PerSeptive Biosystems, Farmingham, Md., USA).
We also assessed the sensitivity of Atmc9 for several protease inhibitors, chelating agents, metal ions, and stabilizing agents in the GKR-ase assay (Table 2). […] To optimize the assay conditions for Atmc9 activity, several stabilizing agents were tested.
Percentage of the activity of recombinant Atmc9 in 50 mM MES (pH 5.3) and 10 mM DTT.

For assay [2], the system named is Lysates from 293T cells overexpressing metacaspases. Put plainly: Caspase substrates incubated with lysates from 293T cells overexpressing metacaspases. Format: biochemical, Arabidopsis thaliana. How it is done: For mammalian overexpression, cDNAs for metacaspases were cloned into pDEST26 (Invitrogen, Gaithersburg, Md., USA), resulting in an N-terminal HIS6-fusion under transcriptional control of the constitutive CMV promoter. Human embryonic kidney cells 293T were cultured in DMEM supplemented with 2 mM L-glutamine, 10% fetal calf serum, 106 U/i streptomycin, […] penicillin and 0.4 mM sodium pyruvate. 5×10^5 cells (6 well plate) were seeded and next day transfected using the calcium phosphate method as described previously (Van de Craen et al., 1998).
Lysates from 293T cells overexpressing metacaspases were also incubated with different synthetic fluorigenic substrates for caspases, namely acetyl-Asp-Glu-Val-Asp-aminomethylcoumarin (Ac-DEVD-amc), acetyl-Ile-Glu-Thr-Asp-aminomethylcoumarin (Ac-IETD-amc), Acetyl-Leu-Glys-His-Asp-aminomethylcoumarin (Ac-LEHD-amc), acetyl-Trp-Glu-His-Asp-aminomethylcoumarin (Ac-WEHD-amc), Acetyl-Tyr-Val-Ala-Asp-aminomethylcoumarin (Ac-YVAD-amc) and benzyloxycarbonyl-Val-Ala-Asp-aminomethylcoumarin (zVAD-amc).

Another assay has as its target T2, metacaspase 3 (Arabidopsis thaliana, UniProt Q9FMG1).
T2 construct: made in house; host or cells: bacterial production, pDEST17 (E. coli by the general method)
T2 sequence (Q9FMG1 1-362 R151K/L157V/V158I/Q177E): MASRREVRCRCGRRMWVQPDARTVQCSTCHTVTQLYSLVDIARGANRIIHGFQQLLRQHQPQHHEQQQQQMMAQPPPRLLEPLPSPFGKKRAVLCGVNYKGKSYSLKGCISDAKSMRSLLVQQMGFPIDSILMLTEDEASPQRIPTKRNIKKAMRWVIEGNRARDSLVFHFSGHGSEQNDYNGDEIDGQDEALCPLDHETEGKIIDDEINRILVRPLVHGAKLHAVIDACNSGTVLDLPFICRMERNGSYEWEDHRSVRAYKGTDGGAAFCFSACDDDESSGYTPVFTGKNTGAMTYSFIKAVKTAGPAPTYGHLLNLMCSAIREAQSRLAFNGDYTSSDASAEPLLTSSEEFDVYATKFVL
Put plainly: Cleavage of fluorescent artificial substrates by purified metacaspase 3. Type of assay: biochemical. The note with it: assay buffers of pHs ranging from 4.5 to 9.0 (MES 50 mM). The source says: For generation of the prodomain deletion mutant of Arabidopsis thaliana metacaspase 3 (MC3ΔN), residues 1 to 91 were replaced by a methionine residue by PCR, using 5′-[…]-3′ (SEQ ID NO:43) as the forward primer and 5′-[…]-3′ (SEQ ID NO:17) as the reverse primer. 5′ extensions used for Gateway™ (Invitrogen) cloning were 5′-[…]-3′ (SEQ ID NO:44) for forward primers and 5′-[…]-3′ (SEQ ID NO:45) for reverse primers. For bacterial production, the cDNA's were cloned into the bacterial expression vector pDEST17™ (Invitrogen), resulting in the amino-terminal translational addition of the following HIS6 tag-containing sequence: […] (SEQ ID NO:37).
Activity of purified metacaspase 3 was tested with different fluorescent substrates in assay buffers of pHs ranging from 4.5 to 9.0 (MES 50 mM). The substrates tested were: Ac-DEVD-AMC, Z-VAD-AMC, Boc-GRR-AMC, Boc-GKR-AMC, Z-FR-AMC and H-AFK-AMC. Only Z-FR-AMC was cut by metacaspase 3.

For assay [3], the target named is T1, Atmc9. Put plainly: kcat/Km of artificial substrates of Atmc9. As to conditions: summary of Table 1. Format: biochemical. How it is done:
The activity assay buffer used was composed of 50 mM MES pH 5.3, 10% (w/v) sucrose, 0.1% (w/v) 3-[(3-cholamidopropyl)dimethylammonio]-1-propanesulfonate [CHAPS], 10 mM DTT.
Release of free AMC was determined in a time course using a FLUOstar Optima fluorescence plate reader (BMB Lab Technologies, Offenburg, Del.). After total hydrolysis of the substrates, kcatlKm was calculated using the following formula: kcat/Km=kobsIEt, where kobs is determined as the decrease per second of the natural logarithm of substrate left, and Et is the concentration of enzyme active sites in the reaction.

Read-outs that look alike come from different tables or passages of the source. Starred links: 1 amine or outer side, 2 acyl side, 3 side chain; linkers in the order of their positions; H or OH if unused. Non-standard residues stand in square brackets, D forms with d. Residues, ends and D or L forms follow the SMILES beside them. *: point of attachment. Sta = CC(C)C[C@H](N)[C@@H](O)CC(=O)O; AMC = Cc1cc(=O)oc2cc(N*)ccc12; Isovaleryl = CC(C)CC(=O)*; code Z = not defined here; Cbz = O=C(OCc1ccccc1)*; CO = O=C([*:1])[*:2]; CH2F = FC*

As for `CC(C)C[C@H](NC(=O)[C@H]1O[C@@H]1C(=O)O)C(=O)NCCCCN=C(N)N` (relative stereo) [E-64, L-trans-epoxysuccinyl-leucylamide-(4-guanido)-butane], the “inhibition / inactivation of Atmc9” value against Atmc9 [1] is given as “no significant blocking capacity”. Further, the “Activity (%)” value on Atmc9 [1] (pH 5.3) worked out at 92%.

As for `CC(C)[C@H](NC(=O)[C@H](CCCNC(=N)N)NC(=O)N[C@@H](Cc1ccccc1)C(=O)O)C(=O)N[C@H](C=O)CCCNC(=N)N` [Antipain] ({Phe-CO}-Arg-Val-Arg-aldehyde), at Atmc9 [1] (pH 5.3), the “Activity (%)” value is listed as 13%.

`N=C(N)c1ccccc1` [Benzamidine]: the “inhibition of Atmc9 activity” value at Atmc9 [1] is reported as “inhibited”. Besides, on Atmc9 [1] (pH 5.3), the “Activity (%)” value is 22%.

As for `C[C@H](CCC(=O)NCCC[N+](C)(C)CCCS(=O)(=O)[O-])[C@H]1CC[C@H]2[C@@H]3[C@H](O)C[C@@H]4C[C@H](O)CC[C@]4(C)[C@H]3C[C@H](O)[C@]12C` [CHAPS, 3-[(3-cholamidopropyl)dimethylammonio]-1-propanesulfonate], at Atmc9 [1] (pH 5.3), the “Activity (%)” value was determined as 127%.

As for `CC(C)C[C@H](NC(=O)[C@@H](NC(=O)N[C@@H](Cc1ccccc1)C(=O)O)[C@@H]1CCN=C(N)N1)C(=O)N[C@H](C=O)Cc1ccccc1` [Chymostatin], the “inhibition / inactivation of Atmc9” value on Atmc9 [1] is recorded as “weak inhibitors”. The “Activity (%)” value at Atmc9 [1] (pH 5.3) was 33%.

`NC(=O)CI` [Iodoacetamide]: on Atmc9 [1], the “inhibition of Atmc9 activity” value was “inhibited”. The “Activity (%)” value at Atmc9 [1] (pH 5.3) was determined as 8%.

Take `CC(=O)N[C@@H](CC(C)C)C(=O)N[C@@H](CC(C)C)C(=O)N[C@H](C=O)CCCNC(=N)N` [Leupeptin]: the “inhibition of Atmc9” value at Atmc9 [1] (at concentrations as low as 1 μM) was “strongly inhibited”. Further, the “Activity (%)” value at Atmc9 [1] (pH 5.3) is recorded as 1%.

As to `O=S(=O)(F)Cc1ccccc1` [PMSF], the “inhibition / inactivation of Atmc9” value against Atmc9 [1] is reported as “no significant blocking capacity”. For the same molecule, on Atmc9 [1] (reagent 1 mM, % of activity of recombinant Atmc9 in 50 mM MES pH 5.3, 10 mM DTT), the “Activity (%)” value stood at 86%.

Take `CC(C)CC(=O)N[C@H](C(=O)N[C@H](C(=O)N[C@@H](CC(C)C)[C@@H](O)CC(=O)N[C@@H](C)C(=O)N[C@@H](CC(C)C)[C@@H](O)CC(=O)O)C(C)C)C(C)C` [Pepstatin] (Isovaleryl-VV[Sta]A[Sta]-OH): the “inhibition / inactivation of Atmc9” value against Atmc9 [1] is on record as “no significant blocking capacity”. Also, on Atmc9 [1] (pH 5.3), the “Activity (%)” value was 97%.

On to `OC[C@H]1O[C@@](CO)(O[C@H]2O[C@H](CO)[C@@H](O)[C@H](O)[C@H]2O)[C@@H](O)[C@@H]1O` [Sucrose], for which the “Activity (%)” value at Atmc9 [1] (pH 5.3) is given as 121%.

On to `Cc1ccc(S(=O)(=O)N[C@@H](Cc2ccccc2)C(=O)CCl)cc1` [TPCK, N^□-tosyl-L-phenylalanyl-chloromethyl ketone], for which the “inhibition / inactivation of Atmc9” value on Atmc9 [1] is “weak inhibitors”. In addition, on Atmc9 [1] (pH 5.3), the “Activity (%)” value was 35%.

With “Acetyl-Leu-Glys-His-Asp-aminomethylcoumarin [Ac-LEHD-amc]”, the “activity of lysates on synthetic fluorigenic caspase substrates” value (from here on “activity of lysates”) in assay [2] is given as “no significant increase in activity”.

Regarding “Acetyl-Tyr-Val-Ala-Asp-aminomethylcoumarin (Ac-YVAD-{AMC}; SMILES CC(=O)N[C@@H](Cc1ccc(O)cc1)C(=O)N[C@H](C(=O)N[C@@H](C)C(=O)N[C@@H](CC(=O)O)C(=O)Nc1ccc2c(C)cc(=O)oc2c1)C(C)C) [Ac-YVAD-amc]”, the “activity of lysates” value in assay [2] was “no significant increase in activity”.

Turning to Aprotinin, the “inhibition / inactivation of Atmc9” value against Atmc9 [1] is on record as “no significant blocking capacity”. For the same molecule, the “Activity (%)” value on Atmc9 [1] (pH 5.3) was 96%.

“H-Ala-Phe-Lys-7-amido-4-methylcoumarin (H-Ala-Phe-Lys-{AMC}; SMILES Cc1cc(=O)oc2cc(NC(=O)[C@H](CCCCN)NC(=O)[C@H](Cc3ccccc3)NC(=O)[C@H](C)N)ccc12) [H-AFK-AMC]”: the “cleavage by metacaspase 3” value with metacaspase 3 is “No activity was detected”. The “quality as substrate for Atmc9” value with Atmc9 [3] is recorded as “less efficiently cleaved”.

Consider “Z-DEVD-cmk: caspase inhibitor; cmk, chloromethyl ketone”, for which the “Activity (%)” value in the assay with Atmc9 [1] (pH 5.3) is 94%.

For “Z-VAD-fmk: caspase inhibitor; fmk, fluoromethyl ketone ({code Z}-Val-Ala-Asp-CH2F; reading uncertain; also: printed as Z-VAD-fmk)”, the “Activity (%)” value with Atmc9 [1] (pH 5.3) was 87%.

Take “Z-YVAD-cmk: caspase inhibitor; cmk, chloromethyl ketone”: the “Activity (%)” value with Atmc9 [1] (pH 5.3) is given as 100%.

On to “acetyl-Asp-Glu-Val-Asp-aminomethylcoumarin [Ac-DEVD-AMC]”, for which the “activity of lysates” value in assay [2] is on record as “no significant increase in activity”. Further, the “cleavage by metacaspase 3” value in the assay with metacaspase 3 is on record as “No activity was detected”.

Regarding “acetyl-Ile-Glu-Thr-Asp-aminomethylcoumarin (Ac-IETD-{AMC}; SMILES CC[C@H](C)[C@H](NC(C)=O)C(=O)N[C@@H](CCC(=O)O)C(=O)N[C@H](C(=O)N[C@@H](CC(=O)O)C(=O)Nc1ccc2c(C)cc(=O)oc2c1)[C@@H](C)O) [Ac-IETD-amc]”, the “activity of lysates” value in assay [2] is “no significant increase in activity”.

Take “acetyl-Trp-Glu-His-Asp-aminomethylcoumarin (Ac-WEHD-{AMC}; SMILES CC(=O)N[C@@H](Cc1c[nH]c2ccccc12)C(=O)N[C@@H](CCC(=O)O)C(=O)N[C@@H](Cc1c[nH]cn1)C(=O)N[C@@H](CC(=O)O)C(=O)Nc1ccc2c(C)cc(=O)oc2c1) [Ac-WEHD-amc]”: the “activity of lysates” value in assay [2] is on record as “no significant increase in activity”.

Consider “benzyloxycarbonyl-Val-Ala-Asp-aminomethylcoumarin (Cbz-Val-Ala-Asp-{AMC}) [Z-VAD-AMC]”, for which, in assay [2], the “activity of lysates” value was “no significant increase in activity”. In addition, the “cleavage by metacaspase 3” value with metacaspase 3 is listed as “No activity was detected”.

B1: Soybean trypsin inhibitor: protease inhibitor (protein)
chain: DFVLDNEGNPLENGGTYYILSDITAFGGIRAAPTGNERCPLTVVQSRNELDKGIGTIISSPYRIRFIAEGHPLSLKFDSFAVIMLCVGIPTEWSVVEDLPEGPAVKIGENKDAMDGWFRLERVSDDEFNNYKLVFCPQQAEDDKCGDIGISIDHDDGTRRLVVSKNKPLVVQFQKLDKESL
B1: the “inhibition / inactivation of Atmc9” value in the assay with Atmc9 [1] is “no significant blocking capacity”. In the assay with Atmc9 [1] (pH 5.3), the “Activity (%)” value is 73%.
